The target in this experiment is NA activity of the H5N1 influenza viruses (Influenza A virus (H5N1), UniProt Q6DPL2). The class given is biochemical, human and avian HP H5N1 influenza viruses.
NA activity of the H5N1 influenza viruses, sequence (Q6DPL2 whole entry, looked up): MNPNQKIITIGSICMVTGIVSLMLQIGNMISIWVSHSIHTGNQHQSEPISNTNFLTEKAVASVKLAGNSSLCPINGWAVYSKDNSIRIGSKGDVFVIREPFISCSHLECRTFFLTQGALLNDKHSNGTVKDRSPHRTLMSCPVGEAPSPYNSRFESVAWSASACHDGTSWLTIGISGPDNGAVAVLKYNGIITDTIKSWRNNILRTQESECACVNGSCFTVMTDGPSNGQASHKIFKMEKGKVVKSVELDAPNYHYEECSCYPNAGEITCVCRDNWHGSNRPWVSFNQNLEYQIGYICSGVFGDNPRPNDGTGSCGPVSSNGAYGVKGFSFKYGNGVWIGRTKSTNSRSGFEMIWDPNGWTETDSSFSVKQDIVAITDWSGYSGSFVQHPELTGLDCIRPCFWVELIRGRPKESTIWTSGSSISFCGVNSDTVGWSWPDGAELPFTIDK

For `CC(=O)N[C@H]1[C@H]([C@H](O)[C@H](O)CO)OC(C(=O)O)=C[C@@H]1N=C(N)N` [Zanamivir, 4-guanidino-Neu5Ac2en], the “susceptibility in phenotypic fluorescence-based assay” value is recorded as “fully susceptible”.

These data come from paper PMC3648604 (Antiviral research, 2013).
